Test results published in ChEMBL document CHEMBL4619792, “Amidate Prodrugs of O-2-Alkylated Pyrimidine Acyclic Nucleosides Display Potent Anti-Herpesvirus Activity” (ACS Med Chem Lett, 2020).

Experiments:
Cytomegalovirus [1] = assay: Antiviral activity against Cytomegalovirus AD169 infected in human HEL cells assessed as reduction in virus-induced cytopathogenicity measured after 6 to 7 days; format: functional, organism-based; details: Human betaherpesvirus 5, AD169, HEL
Cytomegalovirus [2] = assay: Antiviral activity against Cytomegalovirus Davis infected in human HEL cells assessed as reduction in virus-induced cytopathogenicity measured after 6 to 7 days; format: functional, organism-based; details: Human betaherpesvirus 5, Davis
Human alphaherpesvirus 3 [3] = assay: Antiviral activity against thymidine kinase positive Varicella zoster virus OKA infected in human HEL cells assessed as reduction in plaque formation measured after 5 days; format: functional, organism-based; details: Human alphaherpesvirus 3, OKA, 120 h
Human alphaherpesvirus 3 [4] = assay: Antiviral activity against thymidine kinase deficient Varicella zoster virus 07-1 infected in human HEL cells assessed as reduction in plaque formation measured after 5 days; format: functional, organism-based; details: Human alphaherpesvirus 3, 07-1, HEL, 120 h
[5] = Cytotoxicity against human HEL cells assessed as minimum cytotoxic concentration for change in cellular morphology incubated for 3 days by microscopic analysis; format: cell-based
[6] = Cytotoxicity against human HEL cells assessed as reduction in cell proliferation incubated for 3 days by Coulter counter method; format: cell-based
[7] = system: Human immunodeficiency virus; assay: Antiviral activity against HIV infected in human CEM cells assessed as inhibition of virus induced cytopathicity incubated for 4 days by microscopic analysis; format: functional, organism-based; details: ccrf-cem
[8] = system: Moloney murine sarcoma virus; assay: Antiviral activity against Moloney murine sarcoma virus infected in murine C3H/3T3 embryo fibroblasts assessed as inhibition of virus-induced transformation incubated for 6 days by microscopic analysis; format: functional, organism-based
Hepatitis B virus = assay: Antiviral activity against Hepatitis B virus ayw1 infected in human HepG2.2.15 cells assessed as reduction in virus DNA replication measured after 6 days by qRT-PCR analysis; format: functional, organism-based; details: ayw1, HepG2 2.2.15, 144 h
[9] = Selectivity index, ratio of CC50 for human HEL cells to EC50 for antiviral activity against Cytomegalovirus AD169 infected in human HEL cells; format: toxicity, cell-based; details: read-out: Ratio CC50/EC50
[10] = Selectivity index, ratio of CC50 for human HEL cells to EC50 for antiviral activity against Cytomegalovirus Davis infected in human HEL cells; format: toxicity, cell-based; details: read-out: Ratio CC50/EC50
[11] = Selectivity index, ratio of CC50 for human HEL cells to EC50 for antiviral activity against thymidine kinase positive Varicella zoster virus OKA infected in human HEL cells; format: toxicity, cell-based; details: read-out: Ratio CC50/EC50
[12] = Selectivity index, ratio of CC50 for human HEL cells to EC50 for antiviral activity against thymidine kinase deficient Varicella zoster virus 07-1 infected in human HEL cells; format: toxicity, cell-based; details: read-out: Ratio CC50/EC50

Row | Compound | EC50 (Cytomegalovirus [1]) [µM] | EC50 (Cytomegalovirus [2]) [µM] | EC50 (Human alphaherpesvirus 3 [3]) [µM] | EC50 (Human alphaherpesvirus 3 [4]) [µM] | MCC at 72 h [5] [µM] | CC50 at 72 h [6] [µM] | EC50 [7] [µM] | EC50 [8] [µM] | EC50 (Hepatitis B virus) [µM] | selectivity ratio [9] | selectivity ratio [10] | selectivity ratio [11] | selectivity ratio [12]
1 | CCCCCOC(=O)C[C@H](NP(=O)(CO[C@H](CF)COc1nccc(N)n1)Oc1ccccc1)C(=O)OCCCCC (mixture of isomers) | 62.8 | 48.2 | 38.2 | 24.7 | > 100 | > 100 | – | – | – | – | – | – | –
2 | CCCCCOC(=O)[C@@H](NP(=O)(CO[C@@H](C)COc1nccc(N)n1)Oc1ccccc1)C(C)C (mixture of isomers) | > 100 | > 100 | > 100 | > 100 | > 100 | – | – | – | – | – | – | – | –
3 | CCCCCOC(=O)[C@@H](NP(=O)(CO[C@H](C)COc1nccc(N)n1)Oc1ccccc1)C(C)C (mixture of isomers) | > 100 | > 100 | > 100 | > 100 | > 100 | – | – | – | – | – | – | – | –
4 | Nc1ccnc(OC[C@H](CF)OCP(=O)(O)O)n1 | 2.36 | 0.8 | 3.79 | 25.3 | > 100 | > 100 | – | – | – | – | – | – | –
5 | O=c1[nH]c(=O)n([C@H]2C[C@H](O)[C@@H](CO)O2)cc1/C=C/Br [BRIVUDINE] | – | – | 0.089 | 0.18 | > 300 | > 300 | – | – | – | – | – | – | –
6 | CCCCCOC(=O)[C@@H](NP(=O)(CO[C@H](C)COc1ncc(F)c(N)n1)Oc1ccccc1)C(C)C (mixture of isomers) | > 100 | > 100 | > 100 | > 100 | > 100 | – | – | – | – | – | – | – | –
7 | CCCCCOC(=O)[C@@H](NP1(=O)CO[C@@H](COc2ncc(F)c(N)n2)CO1)C(C)C (mixture of isomers) | > 100 | > 100 | > 100 | > 100 | > 100 | – | – | – | – | – | – | – | –
8 | CCCCCOC(=O)[C@@H](NP1(=O)CO[C@H](COc2nccc(N)n2)CO1)C(C)C (mixture of isomers) | 14 | 4.76 | 53.6 | 35.7 | > 100 | > 100 | – | – | – | – | – | – | –
9 | CCCCCOC(=O)[C@@H](NP(=O)(CO[C@H](CF)COc1ncc(F)c(N)n1)Oc1ccccc1)C(C)C (mixture of isomers) | > 100 | > 100 | > 100 | > 100 | > 100 | – | – | – | – | – | – | – | –
10 | Cc1c(N)nc(N)nc1OCCOCP(=O)(O)O | – | – | – | – | – | – | 0.16 to 0.43 | 0.16 to 0.43 | – | – | – | – | –
11 | CCCCCOC(=O)[C@@H](NP1(=O)CO[C@H](COc2ncc(F)c(N)n2)CO1)C(C)C (mixture of isomers) | > 100 | > 100 | > 100 | > 100 | > 100 | – | – | – | – | – | – | – | –
12 | Nc1nc2c(ncn2COC(CO)CO)c(=O)[nH]1 [GANCICLOVIR] | 13 | 4.44 | – | – | > 394 | > 394 | – | – | – | – | – | – | –
13 | CCCCOC(=O)[C@@H](NP(=O)(COC(C)COc1nccc(N)n1)Oc1ccccc1)C(C)C (some centres undefined) | > 100 | > 100 | > 100 | > 100 | > 100 | – | – | – | – | – | – | – | –
14 | CCCCCOC(=O)[C@@H](NP1(=O)CO[C@@H](COc2nccc(N)n2)CO1)C(C)C (mixture of isomers) | > 100 | > 100 | > 100 | > 100 | > 100 | – | – | – | – | – | – | – | –
15 | CCCCCOC(=O)[C@@H](NP(=O)(CO[C@@H](C)COc1ncc(F)c(N)n1)Oc1ccccc1)C(C)C (mixture of isomers) | > 100 | > 100 | > 100 | > 100 | > 100 | – | – | – | – | – | – | – | –
16 | Nc1nc2c(ncn2COCCO)c(=O)[nH]1 [ACYCLOVIR] | – | – | – | – | > 444 | > 444 | – | – | – | – | – | – | –
17 | CCCCCOC(=O)[C@@H](NP(=O)(CO[C@H](CF)COc1nccc(N)n1)Oc1ccccc1)C(C)C (mixture of isomers) | > 100 | 7.61 | 38.6 | 35.9 | > 100 | – | – | – | – | – | – | – | –
18 | CCCCCOC(=O)C[C@H](NP(=O)(CO[C@@H](CF)COc1nccc(N)n1)Oc1ccccc1)C(=O)OCCCCC (mixture of isomers) | 0.54 | 0.094 | 0.36 | 0.098 | > 100 | 51.8 | – | – | 2.1 to 8.71 | 96 to 551 | 96 to 551 | 96 to 551 | 96 to 551
19 | Nc1ccnc(OC[C@@H](CF)OCP(=O)(O)O)n1 (mixture of isomers) | > 100 | > 100 | > 100 | > 100 | > 100 | > 100 | – | – | – | – | – | – | –
20 | Nc1ccn(C[C@@H](CO)OCP(=O)(O)O)c(=O)n1 [CIDOFOVIR] | 1.74 | 0.94 | – | – | > 317 | > 317 | – | – | – | – | – | – | –
21 | CCCCCOC(=O)[C@@H](NP(=O)(CO[C@@H](CF)COc1ncc(F)c(N)n1)Oc1ccccc1)C(C)C (mixture of isomers) | 11.2 | 4.7 | 6.73 | 2.94 | > 100 | > 100 | – | – | 2.1 to 8.71 | – | – | – | –
22 | CCCCCOC(=O)[C@@H](NP(=O)(CO[C@@H](CF)COc1nccc(N)n1)Oc1ccccc1)C(C)C (mixture of isomers) | 0.26 | 0.097 | 0.36 | 0.18 | > 100 | 79.3 | – | – | 2.1 to 8.71 | 220 to 818 | 220 to 818 | 220 to 818 | 220 to 818
